Test system: KYSE-150 esophageal xenograft
Assay type: in vivo
Conditions: (S)-4 500 mg/kg po qd; doxorubicin 10 mg/kg iv once at day 4

## COc1cccc2c1C(=O)c1c(O)c3c(c(O)c1C2=O)C[C@@](O)(C(=O)CO)C[C@@H]3O[C@H]1C[C@H](N)[C@H](O)[C@H](C)O1 [Doxorubicin, doxorubicin]
  Antitumor efficacy relative to vehicle control: no significant antitumor efficacy

Reference: publication PMC4917279 (Journal of Medicinal Chemistry, 2016)
